Here are results for 1 compound from patent US8551963B2, “Imidazolothiazole compounds and methods of use thereof” (Ambit Biosciences Corporation, priority 2008, dated 2013).

One data set relates to plasma protein. Description: Plasma protein binding assay (equilibrium dialysis). It counts as in vitro ADME. As to conditions: 1 μM, equilibrium dialysis 16-20 hours at 37° C. The protocol: Reagents: 1× Isotonic PBS (Mediatech, Inc., Herndon, Va.); 96 Well Equilibrium Dialyzer (Harvard Apparatus, Holliston, Mass.) and Animal plasma from species of interest.
1 μM solutions of test compound were prepared in both isotonic PBS and 10% animal plasma in isotonic PBS.
200 μl of each test solution was added to opposite sides of the equilibrium dialysis membrane.
Samples were incubated for 16-20 hours at 37° C.
After incubation, 100 μl sample was removed from the PBS side and diluted with 100 μl of 20% animal plasma in PBS.
100 μl sample was removed from the 10% animal plasma side and diluted with 100 μl of 10% animal plasma.
A calibration curve was prepared in 10% animal plasma to extrapolate unknown concentrations.
Samples were analyzed by LC/MS/MS.
50 μl of samples, calibration standards and quality control standards were extracted with 100 μl of acetonitrile containing 25 ng/ml of internal standard.
Calculations Calculate fraction unbound in 10% plasma Fu(10%)=1−(PC−PF)/PC) Convert 10% plasma value to 100% Fu(100%)=Fu10%/(10−9*Fu10%).
A general note: In equilibrium dialysis only unbound substance equilibrates across the membrane.

Data set [1] has as its target T1, CYP2C8 (Homo sapiens (Human), UniProt P10632). Description: Time dependant inhibition in human liver microsomes, CYP2C8. In kind it is in vitro ADME. As for the experimental part:
For each CYP isoform tested, 10 μM Compound I-1 was pre-incubated with pooled male and female human liver microsomes with NADPH in a 37° C. shaking water bath in duplicate to afford a final pre-incubation assay concentration of 100 mM KPO4/pH 7.4, 10 mM MgCl2, 2 mg/mL of human liver microsome (CellzDirect lot HLM HMMC-PL020) and 1 mM NADPH (Calbiochem). At each pre-incubation time point (0, 5, 10, 20, and 30 minutes) 20 μL was removed and placed in a second 96 well plate on ice. After all pre-incubation time points were collected 180 uL of additional human microsome liver preparation containing the appropriate CYP specific substrate at its Km concentration listed in Table 11 plus NADPH, was added to each time point. The samples were incubated for an additional 10 minutes in a 37° C. shaking water bath and then quenched with 75:25 acetonitrile (ACN):water containing the appropriate internal standards listed in Table 11. After brief mixing, the plate was centrifuged and the supernatant removed for analysis by LC/MS/MS (API 4000 Qtrap) for the formation of 6-hydroxy-testosterone (CYP3A4), 4-hydroxy-mephenyloin (CYP2C19), or 6-hydroxy-taxol (CYP2C8). […] Consistent with Example 5, Compound I-1 did inhibit CYP2C8-mediated metabolite formation at 10 μM, but not in a time dependent manner.
A general note: Liver microsomes are a subcellular fraction often used to study metabolism.

In another data set the target is CYP2C19 (Homo sapiens (Human), UniProt P33261). The data set is described as follows: Inhibitory constant KI in human liver microsomes, CYP2C19. As to conditions: for Ki: CYP2C19, global non-linear regression. It counts as in vitro ADME. As for the experimental part:
(§1) A 2 mM stock of Compound I-1 was prepared in acetonitrile (ACN) and serially diluted 2-fold from 2000 μM to 15.63 μM in ACN. […] Individual human liver microsome preparations containing the substrate were then incubated with Compound I-1 (final concentration range 40 μM to 0.31 μM of Compound I-1) for a final incubation concentration of 0.5 mg/mL microsome, 75 mM KPO4, 6.5 mM MgCl2, 1 mM NADPH and 2% acetonitrile (ACN). The samples were incubated in a 37° C. shaking water bath for 20 minutes then quenched with ACN:water (75:25) containing internal standards propranolol at 0.3 ng/mL and cortisone at 0.3 ng/mL. After brief mixing, the plate was centrifuged and the supernate removed for analysis by LC/MS/MS (API 4000 Qtrap) for formation of 6-hydroxy-testosterone (CYP3A4), 4-hydroxy-mephenyloin (CYP2C19) or hydroxy-taxol (CYP2C8). The data was analyzed using global non-linear regression software (GraphPad Prism) and the overall fit of the data (R^2) was used to determine if Compound I-1 was a competitive, non-competitive, or uncompetitive inhibitor. In addition the data was plotted as a Lineweaver-Burke graph (1/V versus 1/S, where V is the […] and S is the substrate concentration) for each inhibitor concentration. Based on the location of convergence (competitive and non-competitive) or non convergence (uncompetitive) of the plots at each inhibitor concentration, the type of inhibition was determined.
(§2) Global non-linear regression allows analysis of all the individual inhibitor curves simultaneously and determines the best fit value for shared parameters between the data sets, in this case KI (or KI′). The results of the global nonlinear analysis of Compound I-1 inhibition of the CYP450 isoforms 3A4, 2C19 and 2C8 are shown in Table 12.

Data set [2] deals with T1, CYP2C8. The data set is described as follows: Inhibitory constant KI in human liver microsomes, CYP2C8. In kind it is in vitro ADME. To be noted: CYP2C8, global non-linear regression. The protocol: as §1, §2
For a further data set, the target named is FLT3 (ITD) (Homo sapiens, UniProt P36888, ITD). Description: biochemical. It counts as binding.
Data set [3] is described as follows: Aqueous and surfactant solubility. It counts as physicochemical. To be noted: kinetic from dmso stock, room temperature overnight.
Method: After equilibration at room temperature overnight the solutions were filtered and solute concentration determined by fast gradient HPLC without further dilution of the samples. […] These analytical standards were prepared from a 500 μM intermediate stock solution made by diluting 10 μl of the 10 mM sample stocks into 190 μl of 50:50 (v/v) acetonitrile/water. Aliquots of this solution were transferred in duplicate into a 96 well plate in the amounts of 0.4, 2, 4, 20, 40, and 100 μl with the volumes made up to 200 total μl with acetonitrile/water and the plate was then heat sealed with a foil sheet. Prior to sample filtration, filters were primed with 600 μl of sample to resolve potential adsorption problems. Both sample replicates were collected through the primed filter. Duplicate determinations were made in all cases.
A further data set deals with FLT3 (N841I) (Homo sapiens (Human), UniProt P36888, N841I). The data set is described as follows: biochemical. It counts as binding.
[4] abbreviates: read-out: Best Fit KI, Competitive.
Setting [5] is: read-out: Best Fit KI, Non-competitive.
The mark [6] stands for this setting: read-out: Best Fit KI′, Uncompetitive.

The structures appear in SMILES notation. Values after ≈ are worked out from the molar mass of the structure shown. “Also recorded” adds a separate entry of the source. Where two headings read alike, the source gives them in different places.

T1 sequence (P10632 whole entry, canonical isoform): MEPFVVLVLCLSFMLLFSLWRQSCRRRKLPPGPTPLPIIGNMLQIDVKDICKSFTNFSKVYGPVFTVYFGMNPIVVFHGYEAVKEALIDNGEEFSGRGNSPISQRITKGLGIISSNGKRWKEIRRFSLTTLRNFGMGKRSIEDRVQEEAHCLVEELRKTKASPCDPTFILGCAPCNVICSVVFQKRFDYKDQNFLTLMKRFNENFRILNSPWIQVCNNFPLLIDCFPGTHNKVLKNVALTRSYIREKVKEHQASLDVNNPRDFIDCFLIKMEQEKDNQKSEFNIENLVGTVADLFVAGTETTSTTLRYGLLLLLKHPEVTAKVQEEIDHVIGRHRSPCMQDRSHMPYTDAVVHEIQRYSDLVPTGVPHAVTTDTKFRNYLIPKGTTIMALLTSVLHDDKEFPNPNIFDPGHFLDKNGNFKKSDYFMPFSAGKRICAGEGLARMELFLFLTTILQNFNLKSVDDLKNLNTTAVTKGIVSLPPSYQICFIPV
Sequence of CYP2C19 (P33261 whole entry): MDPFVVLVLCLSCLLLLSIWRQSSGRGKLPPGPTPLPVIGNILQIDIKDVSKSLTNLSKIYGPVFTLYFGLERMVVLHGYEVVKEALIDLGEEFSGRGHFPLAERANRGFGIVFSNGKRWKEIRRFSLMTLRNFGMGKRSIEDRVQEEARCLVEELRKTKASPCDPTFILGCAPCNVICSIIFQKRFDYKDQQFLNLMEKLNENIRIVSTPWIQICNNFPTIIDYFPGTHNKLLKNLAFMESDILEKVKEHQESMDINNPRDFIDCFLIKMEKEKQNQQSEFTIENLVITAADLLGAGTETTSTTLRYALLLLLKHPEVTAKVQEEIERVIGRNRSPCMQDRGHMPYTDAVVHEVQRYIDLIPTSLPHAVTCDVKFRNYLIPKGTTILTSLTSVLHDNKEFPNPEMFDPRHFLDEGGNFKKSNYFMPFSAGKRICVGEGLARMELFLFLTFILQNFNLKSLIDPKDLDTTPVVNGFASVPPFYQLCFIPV
Method for FLT3 (ITD): Competition binding assays used herein were developed, validated and performed as described in Fabian et al., Nature Biotechnology 2005, 23, 329-336. Kinases were produced as fusions to T7 phage (See, Fabian et al. or WO04/015142) or alternatively, the kinases were expressed in HEK-293 cells and subsequently tagged with DNA for PCR detection (See, WO08/005,310). […] The liganded beads were blocked with excess biotin and washed with blocking buffer (SeaBlock (Pierce), 1% BSA, 0.05% Tween 20, 1 mM DTT) to remove unbound ligand and to reduce non-specific binding. […] Test compounds were prepared as 100× stocks in DMSO and rapidly diluted into the aqueous environment. DMSO was added to control assays lacking a test compound. […] The kinase concentration in the eluates was measured by quantitative PCR. Each kinase was tested individually against each compound. Kds were determined using eleven serial threefold dilutions.
Method for FLT3 (N841I): The liganded beads were blocked with excess biotin and washed with blocking buffer (SeaBlock (Pierce), 1% BSA, 0.05% Tween 20, 1 mM DTT) to remove unbound ligand and to reduce non-specific binding. […] Test compounds were prepared as 100× stocks in DMSO and rapidly diluted into the aqueous environment. DMSO was added to control assays lacking a test compound. […] The kinase concentration in the eluates was measured by quantitative PCR. Each kinase was tested individually against each compound. Kds were determined using eleven serial threefold dilutions.

Regarding `CC(C)(CO)c1cc(NC(=O)Nc2ccc(-c3cn4c(n3)sc3cc(OCCN5CCOCC5)ccc34)cc2)no1` [Compound I-1, 1-[5-(2-hydroxy-1,1-dimethyl-ethyl)-isoxazol-3-yl]-3-{4-[7-(2-morpholin-4-yl-ethoxy)-benzo[d]imidazo[2,1-b]thiazol-2-yl]-phenyl}-urea], in the data set on plasma protein, the “Percentage of unbound compound in 10% plasma” value stood at 42.5%. Moreover, on CYP2C8 [1] (10 μM), the “Inhibition of CYP2C8-mediated metabolite formation” value was “did inhibit”. For the same compound, on CYP2C8 [1] (CYP2C8, 10 μM, pre-incubation 0-30 minutes), the Time dependant inhibition entry is recorded as “not a time dependant inhibitor”. Also, the Type of inhibition entry on CYP2C19 (CYP2C19) was “non-competitive inhibition; also recorded: weak non-competitive inhibitor”. Moreover, the inhibition constant (Ki) (commonly a dissociation constant, usually derived from enzyme kinetics or from competition with a known ligand) at CYP2C19 (setting [4]) was 1.7 µM; on CYP2C19 (setting [5]) it was 10.4 µM; on CYP2C19 (setting [6]) it was 7.4 µM; on CYP2C8 [2] (setting [4]), 22.1 µM; on CYP2C8 [2] (setting [5]), 60.8 µM; on CYP2C8 [2] (setting [6]), 37.7 µM. In addition, the Kd (commonly the concentration at which binding is half-saturated) on FLT3 (ITD) is 0.0088 µM; at FLT3 (N841I), 0.00077 µM. Moreover, the solubility (as a rule, the concentration that dissolves in the medium under given conditions) in data set [3] (HBSS buffer with 0.05% Polysorbate 80, pH 7.4, aqueous with cosolvent or surfactant or cyclodextrin, HBSS containing 0.05% Polysorbate 80, 2.5% DMSO, read-out: Average Aqueous Solubility, 0.05% Polysorbate 80) is 2 µM (≈ 1.15 µg/mL); in data set [3] (Hank's balanced salt solution (HBSS) buffer, aqueous buffer, HBSS pH 7.4, 2.5% DMSO, read-out: Average Aqueous Solubility, pH 7.4) it was under 1 µM.
